Earlier results on 19 compounds are cited in US20090005367A1, “COMPOSITION AND METHOD FOR TREATING ALCOHOLISM AND OTHER SUBSTANCE ADDICTIONS” (priority 2006, published 2009).

Data set [1] relates to aldehyde dehydrogenase. The settings on record: blood, after alcohol ingestion.
Assay in data set [2]: not given
This is another data set of the same source.

Assay in data set [3]: not given
The source holds these as a separate data set.

For data set [4] the following is noted: oral / gastrointestinal tract.

Structures are written as SMILES. Like-named read-outs stand apart in the source and are kept apart here.

For `O=C1CN=C(c2ccccc2)c2cc([N+](=O)[O-])ccc2N1` [Nitrazepam], the “Elimination Half-Life” value (parent drug) was 15 to 38 h.
In the case of `O=C1Nc2ccc(Cl)cc2C(c2ccccc2Cl)=NC1O` (stereo not shown) [Lorazepam], under “parent drug”, the “Elimination Half-Life” value was 10 to 20 h.
As for `CC1=CC(=O)N2CC(=O)N(C)c3ccc(Cl)cc3C2(c2ccccc2)O1` (stereo not shown) [Ketazolam], for the setting “parent drug”, the “Elimination Half-Life” value is 2 h.
Consider `CNC1=Nc2ccc(Cl)cc2C(c2ccccc2)=[N+]([O-])C1` [Chlordiazepoxide], for which, where the note is “parent drug”, the “Elimination Half-Life” value was 5 to 30 h.
For the compound `CCN(CC)C(=S)SSC(=S)N(CC)CC` [Disulfiram, bis(diethylthiocarbamoyl)disulfide], the “concentration of acetaldehyde compared with same amount of alcohol without disulfiram” value in data set [1] was 5 to 10 times higher. The “time until full effects occur after ingestion” value in data set [2] was 12 h. Also, the “time effective following administration of the last dose” value in data set [2] (after last dose) is on record as “approximately one to two”.
For the compound `CN1CCN(/C=C2\N=C3CN=C(c4ccccc4Cl)c4cc([N+](=O)[O-])ccc4N3C2=O)CC1` [Loprazolam], the “Elimination Half-Life” value (parent drug) was 6 to 12 h.
`Fc1ccccc1C1=NCC(=S)N(CC(F)(F)F)c2ccc(Cl)cc21` [Quazepam]: where the note is “parent drug”, the “Elimination Half-Life” value is 25 to 100 h.
Turning to `Cc1nnc2n1-c1ccc(Cl)cc1C(c1ccccc1)=NC2` [Alprazolam], the “Elimination Half-Life” value (parent drug) is 6 to 12 h.
`CN1C(=O)CC(=O)N(c2ccccc2)c2cc(Cl)ccc21` [Clobazam]: under “parent drug”, the “Elimination Half-Life” value is 12 to 60 h.
As for `Clc1ccc2c(c1)C(c1ccccc1)=NCc1nncn1-2` [Estazolam], for the setting “parent drug”, the “Elimination Half-Life” value is 10 to 24 h.
For `CN1C(=O)C(O)N=C(c2ccccc2Cl)c2cc(Cl)ccc21` (stereo not shown) [Lormetazepam], the “Elimination Half-Life” value (parent drug) is 10 to 12 h.
Turning to `N#CCCN1C(=O)C(O)N=C(c2ccccc2F)c2cc(Cl)ccc21` (stereo not shown) [Cinolazepam], the “Elimination Half-Life” value (parent drug) is recorded as 9 h.
For `CN1[C@@H]2CC[C@H]1C[C@@H](OC(=O)C(CO)c1ccccc1)C2` (stereo partly shown) [Atropine], in data set [3], the “excreted in the urine as unchanged drug” value is 30-50%.
Consider `Cc1ncc2n1-c1ccc(Cl)cc1C(c1ccccc1F)=NC2` [Midazolam], for which the “Elimination Half-Life (h)” value (parent drug) is on record as 3 hours (1.8-6.
On to `O=C1CN=C(c2ccccn2)c2cc(Br)ccc2N1` [Bromazepam], for which, for the setting “parent drug”, the “Elimination Half-Life” value was 10 to 20 h.
On to `CN1CCN=C(c2ccccc2)c2cc(Cl)ccc21` [Medazepam], for which the “Elimination Half-Life” value (parent drug) is 36 to 200 h.
Take `O=C1CN=C(c2ccccc2Cl)c2cc([N+](=O)[O-])ccc2N1` [Clonazepam]: the Elimination Half-Life was 30 to 40 h. Also, for the setting “parent drug”, the “Elimination Half-Life” value was 18 to 50 h. For the same compound, in data set [2], the “time until full effects occur after ingestion” value is 1 to 4 h. Moreover, the duration of action in data set [2] (in vivo) was 30 to 40 h. Moreover, the absorption entry in data set [4] was “rapidly and completely absorbed”.
Regarding `Cc1nnc2n1-c1ccc(Cl)cc1C(c1ccccc1Cl)=NC2` [Triazolam], where the note is “parent drug”, the “Elimination Half-Life” value was 2 h.
Turning to `CN1C(=O)CN=C(C2=CCCCC2)c2cc(Cl)ccc21` [Tetrazepam], for the setting “parent drug”, the “Elimination Half-Life” value was 3 to 26 h.
